Data: patent US20240165243A1, “EGFR DEGRADERS AND METHODS OF USE” (BeiGene Switzerland GmbH, priority 2021, published 2024)

System: EGFR (Del19/T790M/C797S)
Experiment: Cell degradation HTRF assay, H1975-clone #28 cells
Format: cell-based
Conditions: H1975-clone #28 (Del19/T790M/C797S) cells, 16 h treatment; for DC50: HTRF, read-out: H1975-clone#28 DTC DC50; for H1975-clone#28 DTC Dmax (%): maximum percentage of degradation
Experimental: Cell Degradation of Example 124-189
H1975-#28 and H1975-#25 cells are treated with compounds diluted in 0.2% DMSO cell culture medium on day 2, incubate for 16 h, 37° C., 5% CO2. the final concentration of compounds in all assay is start with 10 uM, 5-fold dilution, total 8 doses were included.
After 16 h treatment, add HTRF lysis buffer to each well; seal the plate and incubate 1 hour at room temperature on a plate shaker; Once the cells are lysed, 16 μL of cell lysate are transferred to a PE 384-well HTRF detection plate; 4 μL of pre-mixed HTRF antibodies are added to each well; Cover the plate with a plate sealer, spin 1000 rpm for 1 min, Incubate overnight at room temperature; Read on BMG PheraStar with HTRF protocol (337 nm-665 nm-620 nm).
The inhibition (degradation) percentage of the compound was calculated by the following equation:
Inhibition percentage of Compound=100−100×(Signal−low control)/(High control−low control), wherein signal=each test compound group.
High control=Cell group with added DMSO and without compound, indicating microplate readings without EGFR degradation;
Dmax is the maximum percentage of inhibition (degradation).
The IC50 (DC50) value of a compound can be obtained by fitting the following equation
Y=Bottom+(TOP−Bottom)/(1+((IC50/X)^hillslope))
Wherein, X and Y are known values, and IC50, Hillslope, Top and Bottom are the parameters obtained by fitting with software. Y is the inhibition percentage (calculated from the equation), X is the concentration of the compound; IC50 is the concentration of the compound when the 50% inhibition is reached. The smaller the IC50 value is, the stronger the inhibitory ability of the compound is. Vice versa, the higher the IC50 value is, the weaker the ability the inhibitory ability of the compound is; Hillslope represents the slope of the fitted curve, generally around 1*; Bottom represents the minimum value of the curve obtained by data fitting, which is generally 0%±20%; Top represents the maximum value of the curve obtained by data fitting, which is generally 100%±20%. The experimental data were fitted by calculating and analyzing with Dotmatics data analysis software. When Dmax<50%, DC50 will be automatically assigned as larger than […].

Row | DC50 | SMILES | H1975-clone#28 DTC Dmax (%)
1 | 0.8 nM | CCc1cc(Nc2ncc(Br)c(Nc3cnc4cc(F)ccc4c3P(C)(C)=O)n2)c(OC)cc1N1CCC(N2CCN(CCc3ccc4c(c3)oc(=O)n4C3CCC(=O)NC3=O)CC2)CC1 (stereo not shown) [Example 153, 3-(6-(2-(4-(1-(4-((5-bromo-4-((4-(dimethylphosphoryl)-7-fluoroquinolin-3-yl)amino)pyrimidin-2-yl)amino)-2-ethyl-5-methoxyphenyl)piperidin-4-yl)piperazin-1-yl)ethyl)-2-oxobenzo[d]oxazol-3(2H)-yl)piperidine-2,6-dione] | 77%
2 | 0.7 nM | CCc1cc(Nc2ncc(Br)c(Nc3cnc4ccccc4c3P(C)(C)=O)n2)c(OC)cc1N1CCC(N2CCN(CCc3cccc4c3n(C3CC3)c(=O)n4C3CCC(=O)NC3=O)CC2)CC1 (stereo not shown) [Example 155, 3-(4-(2-(4-(1-(4-((5-bromo-4-((4-(dimethylphosphoryl)quinolin-3-yl)amino)pyrimidin-2-yl)amino)-2-ethyl-5-methoxyphenyl)piperidin-4-yl)piperazin-1-yl)ethyl)-3-cyclopropyl-2-oxo-2,3-dihydro-1H-benzo[d]imidazol-1-yl)piperidine-2,6-dione] | 85%
3 | 1.4 nM | CCc1cc(Nc2ncc(Br)c(Nc3cnc4ccccc4c3P(C)(C)=O)n2)c(OC)cc1N1CCC(N2CCN(CCc3c(F)ccc4c3n(C)c(=O)n4C3CCC(=O)NC3=O)CC2)CC1 (stereo not shown) [Example 159, 3-(4-(2-(4-(1-(4-((5-bromo-4-((4-(dimethylphosphoryl)quinolin-3-yl)amino)pyrimidin-2-yl)amino)-2-ethyl-5-methoxyphenyl)piperidin-4-yl)piperazin-1-yl)ethyl)-5-fluoro-3-methyl-2-oxo-2,3-dihydro-1H-benzo[d]imidazol-1-yl)piperidine-2,6-dione] | 85%
4 | 1.1 nM | CCc1cc(Nc2ncc(Br)c(Nc3cnc4ccccc4c3P(C)(C)=O)n2)c(OC)cc1N1CCC(N2CCN(CCc3cccc4c3n(CC)c(=O)n4C3CCC(=O)NC3=O)CC2)CC1 (stereo not shown) [Example 163, 3-(4-(2-(4-(1-(4-((5-bromo-4-((4-(dimethylphosphoryl)quinolin-3-yl)amino)pyrimidin-2-yl)amino)-2-ethyl-5-methoxyphenyl)piperidin-4-yl)piperazin-1-yl)ethyl)-3-ethyl-2-oxo-2,3-dihydro-1H-benzo[d]imidazol-1-yl)piperidine-2,6-dione] | 86%
5 | 2.1 nM | CCc1cc(Nc2ncc(Br)c(Nc3cnc4ccccc4c3P(C)(C)=O)n2)c(OC)cc1N1CCC(N2CCN(CCc3cccc4c3C(C)(C)C(=O)N4C3CCC(=O)NC3=O)CC2)CC1 (stereo not shown) [Example 164, 3-(4-(2-(4-(1-(4-((5-bromo-4-((4-(dimethylphosphoryl)quinolin-3-yl)amino)pyrimidin-2-yl)amino)-2-ethyl-5-methoxyphenyl)piperidin-4-yl)piperazin-1-yl)ethyl)-3,3-dimethyl-2-oxoindolin-1-yl)piperidine-2,6-dione] | 81%
6 | 4.2 nM | CCc1cc(Nc2ncc(Br)c(Nc3cnc4c(F)cccc4c3P(C)(C)=O)n2)c(OC)cc1N1CCC(N2CCN(CCC3CCN(c4cc(F)c(C5CCC(=O)NC5=O)c(F)c4)CC3)CC2)CC1 (stereo not shown) [Example 165, 3-(4-(4-(2-(4-(1-(4-((5-bromo-4-((4-(dimethylphosphoryl)-8-fluoroquinolin-3-yl)amino)pyrimidin-2-yl)amino)-2-ethyl-5-methoxyphenyl)piperidin-4-yl)piperazin-1-yl)ethyl)piperidin-1-yl)-2,6-difluorophenyl)piperidine-2,6-dione] | 84%
7 | 0.8 nM | CCc1cc(Nc2ncc(Br)c(Nc3cnc4cc(F)ccc4c3P(C)(C)=O)n2)c(OC)cc1N1CCC(N2CCN(CCc3cccc4c3n(C)c(=O)n4C3CCC(=O)NC3=O)CC2)CC1 (stereo not shown) [Example 167, 3-(4-(2-(4-(1-(4-((5-bromo-4-((4-(dimethylphosphoryl)-7-fluoroquinolin-3-yl)amino)pyrimidin-2-yl)amino)-2-ethyl-5-methoxyphenyl)piperidin-4-yl)piperazin-1-yl)ethyl)-3-methyl-2-oxo-2,3-dihydro-1H-benzo[d]imidazol-1-yl)piperidine-2,6-dione] | 74%
8 | 2 nM | CCc1cc(Nc2ncc(Br)c(Nc3cnc4ccccc4c3P(C)(C)=O)n2)c(OC)cc1N1CCC(N2CCN(C(=O)[C@H]3CCN(c4ccc5c(c4)C(C)(C)C(=O)N5C4CCC(=O)NC4=O)C3)CC2)CC1 (stereo partly drawn) [Example 168, 3-(5-((S)-3-(4-(1-(4-((5-bromo-4-((4-(dimethylphosphoryl)quinolin-3-yl)amino)pyrimidin-2-yl)amino)-2-ethyl-5-methoxyphenyl)piperidin-4-yl)piperazine-1-carbonyl)pyrrolidin-1-yl)-3,3-dimethyl-2-oxoindolin-1-yl)piperidine-2,6-dione] | 47%
9 | 4.6 nM | CCc1cc(Nc2ncc(Br)c(Nc3cnc4ccccc4c3P(C)(C)=O)n2)c(OC)cc1N1CCC(N2CCN(C(=O)C3CN(c4cccc5c4C(C)(C)C(=O)N5C4CCC(=O)NC4=O)C3)CC2)CC1 (stereo not shown) [Example 169, 3-(4-(3-(4-(1-(4-((5-bromo-4-((4-(dimethylphosphoryl)quinolin-3-yl)amino)pyrimidin-2-yl)amino)-2-ethyl-5-methoxyphenyl)piperidin-4-yl)piperazine-1-carbonyl)azetidin-1-yl)-3,3-dimethyl-2-oxoindolin-1-yl)piperidine-2,6-dione] | 65%
10 | 2.1 nM | CCc1cc(Nc2ncc(Br)c(Nc3cnc4ccc(F)cc4c3P(C)(C)=O)n2)c(OC)cc1N1CCC(N2CCN(CCc3cccc4c3n(C)c(=O)n4C3CCC(=O)NC3=O)CC2)CC1 (stereo not shown) [Example 170, 3-(4-(2-(4-(1-(4-((5-bromo-4-((4-(dimethylphosphoryl)-6-fluoroquinolin-3-yl)amino)pyrimidin-2-yl)amino)-2-ethyl-5-methoxyphenyl)piperidin-4-yl)piperazin-1-yl)ethyl)-3-methyl-2-oxo-2,3-dihydro-1H-benzo[d]imidazol-1-yl)piperidine-2,6-dione] | 82%
11 | 4.3 nM | CCc1cc(Nc2ncc(Br)c(Nc3cnc4ccc(C(F)(F)F)cc4c3P(C)(C)=O)n2)c(OC)cc1N1CCC(N2CCN(CCc3cc(F)c(C4CCC(=O)NC4=O)c(F)c3)CC2)CC1 (stereo not shown) [Example 171, 3-(4-(2-(4-(1-(4-((5-bromo-4-((4-(dimethylphosphoryl)-6-(trifluoromethyl)quinolin-3-yl)amino)pyrimidin-2-yl)amino)-2-ethyl-5-methoxyphenyl)piperidin-4-yl)piperazin-1-yl)ethyl)-2,6-difluorophenyl)piperidine-2,6-dione] | 79%
12 | 1.4 nM | CCc1cc(Nc2ncc(Br)c(Nc3cnc4cc(F)ccc4c3P(C)(C)=O)n2)c(OC)cc1N1CCC(N2CCN(CCc3cc(F)c(C4CCC(=O)NC4=O)c(F)c3)CC2)CC1 (stereo not shown) [Example 172, 3-(4-(2-(4-(1-(4-((5-bromo-4-((4-(dimethylphosphoryl)-7-fluoroquinolin-3-yl)amino)pyrimidin-2-yl)amino)-2-ethyl-5-methoxyphenyl)piperidin-4-yl)piperazin-1-yl)ethyl)-2,6-difluorophenyl)piperidine-2,6-dione] | 81%
13 | 2.7 nM | CCc1cc(Nc2ncc(Br)c(Nc3cnc4c(F)c(F)ccc4c3P(C)(C)=O)n2)c(OC)cc1N1CCC(N2CCN(CCc3cc(F)c(C4CCC(=O)NC4=O)c(F)c3)CC2)CC1 (stereo not shown) [Example 173, 3-(4-(2-(4-(1-(4-((5-bromo-4-((4-(dimethylphosphoryl)-7,8-difluoroquinolin-3-yl)amino)pyrimidin-2-yl)amino)-2-ethyl-5-methoxyphenyl)piperidin-4-yl)piperazin-1-yl)ethyl)-2,6-difluorophenyl)piperidine-2,6-dione] | 82%
14 | 1.8 nM | CCc1cc(Nc2ncc(Br)c(Nc3cnc4ccc(F)cc4c3P(C)(C)=O)n2)c(OC)cc1N1CCC(N2CCN(CCc3cc(F)c(C4CCC(=O)NC4=O)c(F)c3)CC2)CC1 (stereo not shown) [Example 174, 3-(4-(2-(4-(1-(4-((5-bromo-4-((4-(dimethylphosphoryl)-6-fluoroquinolin-3-yl)amino)pyrimidin-2-yl)amino)-2-ethyl-5-methoxyphenyl)piperidin-4-yl)piperazin-1-yl)ethyl)-2,6-difluorophenyl)piperidine-2,6-dione] | 80%
